From patent US11274124B2, “Tubulysin analogues as anticancer agents and payloads for antibody-drug conjugates and methods of treatment therewith” (William Marsh Rice University, priority 2017, dated 2022) come the findings set out here.

Data set [1] has as its system MES SA (uterine sarcoma cell line). Description: In vitro cytotoxicity assay (CellTiter-Glo, 72 hours), MES SA. Format: cell-based.
Data set [2] deals with MES SA DX (MES SA cell line with marked multi-drug resistance). Description: In vitro cytotoxicity assay (CellTiter-Glo, 72 hours), MES SA DX.
Data set [3] has as its system HEK 293T (human embryonic kidney cancer cell line). The data set can be described thus: In vitro cytotoxicity assay (CellTiter-Glo, 72 hours), HEK 293T. It counts as cell-based. In general terms: Cellular ATP, detected with luciferase, serves as a proxy for viable cell number.
The mark [4] stands for this setting: Homo sapiens, MES-SA, 72 h, read-out: MES SA, IC50 Value in nM.
[5] abbreviates: Homo sapiens, MES-SA, 72 h, read-out: MES SA DX, IC50 Value in nM.
Setting [6] is: Homo sapiens, HEK-293T, 72 h, read-out: HEK 293T, IC50 Value in nM.
The mark [7] stands for this setting: Homo sapiens, MES-SA, 72 h, read-out: MES SA, IC50.
Where [8] appears, read: Homo sapiens, MES-SA, 72 h, read-out: MES SA DX, IC50.
Setting [9] is: Homo sapiens, HEK-293T, 72 h, read-out: HEK 293T, IC50.
The mark [10] stands for this setting: Table 2, 72 hours, CellTiter-Glo, read-out: MES SA, IC50 Value in nM.
Setting [11] is: read-out: MES SA DX, IC50 Value in nM, Table 2, 72 hours, CellTiter-Glo.
The mark [12] stands for this setting: Table 2, 72 hours, CellTiter-Glo, read-out: HEK 293T, IC50 Value in nM.

The structures appear in SMILES notation. Like-named read-outs stand apart in the source and are kept apart here.

`CCOC(=O)[C@@H](C)CC(Cc1ccccc1)NC(=O)c1nc([C@@H](C[C@H](C(C)C)N(C)C(=O)[C@@H](NC(=O)[C@H]2CCCCN2C)C(C)C)OC(C)=O)sc1CCOCc1ccccc1` (stereo in doubt) [Tb110, Ethyl (2S,4S)-4-[({2-[(1R,3R)-1-acetoxy-4-methyl-3-{methyl[(2S)-3-methyl-2-{[(1-methylpiperidin-2-yl)carbonyl]amino}butanoyl]amino}pentyl]-5-[2-(benzyloxy)ethyl]-1,3-thiazol-4-yl}carbonyl)-amino]-2-methyl-5-phenylpentanoate]: the values for the IC50 in data set [1] (setting [4]), in data set [2] (setting [5]) and in data set [3] (setting [6]) were 3.09 nM, over 400 nM and 1.87 nM, respectively.

For `CC(=O)O[C@H](C[C@H](C(C)C)N(C)C(=O)[C@@H](NC(=O)[C@H]1CCCCN1C)C(C)C)c1nc(C(=O)NC(Cc2ccccc2)C[C@H](C)C(=O)O)c(CCOCc2ccccc2)s1` (stereo in doubt) [Tb111, (2S,4S)-4-[({2-[(1R,3R)-1-acetoxy-4-methyl-3-{methyl[(2S)-3-methyl-2-{[(1-methylpiperidin-2-yl)carbonyl]amino}butanoyl]amino}pentyl]-5-[2-(benzyloxy)ethyl]-1,3-thiazol-4-yl}carbonyl)-amino]-2-methyl-5-phenylpentanoic acid], the 50% inhibitory concentration (IC50) (commonly the concentration at which inhibition is half-maximal) in data set [1] (setting [7]) was determined as 0.04 nM; in data set [1] (setting [4]), 0.04 nM; in data set [2] (setting [8]), 1.54 nM; in data set [2] (setting [5]) it was 1.54 nM; in data set [3] (setting [9]), 0.006 nM; in data set [3] (setting [6]) it was 0.006 nM. Further, the “cytotoxicities against the marked drug resistant cancer cell line MES SA DX (in words)” value (“cytotoxicities” below) in data set [2] is “relatively potent (low nanomolar)”.

Regarding `CCOC(=O)C(C)CC(Cc1ccccc1)NC(=O)c1nc([C@@H](CC(C(C)C)N(C)C(=O)[C@@H](NC(=O)[C@H]2CCCCN2C)C(C)C)OC(C)=O)sc1CCO` (stereo in doubt) [Tb112, Ethyl (2R,4S)-4-[({2-[(1R,3S)-1-acetoxy-4-methyl-3-{methyl[(2S)-3-methyl-2-{[(1-methylpiperidin-2-yl)carbonyl]amino}butanoyl]amino}pentyl]-5-(2-hydroxyethyl)-1,3-thiazol-4-yl}carbonyl)amino]-2-methyl-5-phenylpentanoate], the IC50 in data set [1] (setting [7]) is 0.1 nM; in data set [1] (setting [4]), 0.1 nM; in data set [2] (setting [8]) it was over 400 nM; in data set [2] (setting [5]), over 400 nM; in data set [3] (setting [9]) it was 0.09 nM; in data set [3] (setting [6]) it was 0.09 nM.

With `CC(=O)O[C@H](CC(C(C)C)N(C)C(=O)[C@@H](NC(=O)[C@H]1CCCCN1C)C(C)C)c1nc(C(=O)NC(Cc2ccccc2)CC(C)C(=O)O)c(CCO)s1` (stereo in doubt) [Tb113, (2R,4S)-4-[({2-[(1R,3S)-1-Acetoxy-4-methyl-3-{methyl[(2S)-3-methyl-2-{[(1-methylpiperidin-2-yl)-carbonyl]amino}butanoyl]amino}pentyl]-5-(2-hydroxyethyl)-1,3-thiazol-4-yl}carbonyl)amino]-2-methyl-5-phenylpentanoic acid], the IC50 in data set [1] (setting [4]) is 5.79 nM; in data set [2] (setting [5]), over 400 nM; in data set [3] (setting [6]), 0.315 nM.

Regarding `COC(=O)[C@@H](CC(Cc1ccccc1)NC(=O)c1csc([C@@H](CC(C(C)C)N(C)C(=O)[C@@H](NC(=O)[C@H]2CCCCN2C)C(C)C)OC(C)=O)n1)NC(=O)OCc1ccccc1` (stereo in doubt) [Tb115, Methyl(2R,4R)-4-[({2-[(1R,3S)-1-acetoxy-4-methyl-3-{methyl[(2S)-3-methyl-2-{[(1-methylpiperidin-2-yl)carbonyl]amino}butanoyl]amino}pentyl]-1,3-thiazol-4-yl}carbonyl)amino]-2-{[(benzyloxy)carbonyl]amino}-5-phenylpentanoate], the IC50 in data set [1] (setting [7]) was found to be 0.02 nM; in data set [1] (setting [4]), 0.02 nM; in data set [2] (setting [8]), 13.8 nM; in data set [2] (setting [5]), 13.8 nM; in data set [3] (setting [9]), 0.01 nM; in data set [3] (setting [6]) it was 0.01 nM. For the same compound, in data set [2], the “cytotoxicities” value is reported as “relatively potent (low nanomolar)”.

In the case of `COC(=O)C(CC(Cc1ccccc1)NC(=O)c1csc([C@@H](CC(C(C)C)N(C)C(=O)[C@@H](NC(=O)[C@H]2CCCCN2C)C(C)C)OC(C)=O)n1)NC(=O)OCc1ccccc1` (stereo in doubt) [Tb116, Methyl(2R,4R)-4-[({2-[(1R,3S)-1-acetoxy-4-methyl-3-{methyl[(2S)-3-methyl-2-{[(1-methylpiperidin-2-yl)carbonyl]amino}butanoyl]amino}pentyl]-1,3-thiazol-4-yl}carbonyl)amino]-2-{[(benzyloxy)carbonyl]amino}-5-phenylpentanoate], the IC50 in data set [1] (setting [7]) is 0.007 nM; in data set [1] (setting [4]), 0.007 nM; in data set [2] (setting [8]), 6 nM; in data set [2] (setting [5]) it was 6 nM; in data set [3] (setting [9]) it was 0.003 nM; in data set [3] (setting [6]) it was 0.003 nM. Moreover, the “cytotoxicities” value in data set [2] is reported as “relatively potent (low nanomolar)”.

As to `COC(=O)[C@@H](C)C[C@H](Cc1ccccc1)NC(=O)c1csc(CC[C@H](C(C)C)N(C)C(=O)[C@@H](NC(=O)[C@H]2CCCCN2C)C(C)C)n1` [PTb-D48], the 50% inhibitory concentration (IC50) in data set [1] (setting [4]), in data set [2] (setting [5]) and in data set [3] (setting [6]) was over 1000 nM throughout.

As to `CC[C@H](C)[C@H](NC(=O)[C@H]1CCCCN1C)C(=O)N(C)[C@H](C[C@@H](OC(C)=O)c1nc(C(=O)N[C@@H](Cc2ccccc2)C[C@H](C)C(=O)O)cs1)C(C)C` [Tb1, N^14-desacetoxytubulysin H, reference compound], the IC50 in data set [1] (setting [10]) is 0.34 nM; in data set [2] (setting [11]), over 10 nM; in data set [3] (setting [12]), 0.02 nM.

For `COC(=O)[C@@H](C)C[C@H](Cc1ccccc1)NC(=O)c1csc([C@@H](C[C@H](C(C)C)N(C)C(=O)[C@@H](NC(=O)[C@H]2CCCCN2C)C(C)C)OC(C)=O)n1` [Tb32, reference compound], the IC50 is 0.012 nM in data set [1] (setting [10]), 1.29 nM in data set [2] (setting [11]) and 0.002 nM in data set [3] (setting [12]).

For `CCCCN1CCCC[C@@H]1C(=O)N[C@H](C(=O)N(C)[C@H](C[C@@H](OC(C)=O)c1nc(C(=O)N[C@@H](Cc2ccccc2)CC(CO)C(=O)OC)cs1)C(C)C)[C@@H](C)CC` (stereo partly drawn) [Tb56, Methyl (4R)-4-[({2-[(1R,3R)-1-acetoxy-3-{[(2S,3S)-2-({[(2R)-1-butylpiperidin-2-yl]carbonyl}amino)-3-methylpentanoyl](methyl)amino}-4-methylpentyl]-1,3-thiazol-4-yl}carbonyl)amino]-2-(hydroxy-methyl)-5-phenylpentanoate], the IC50 in data set [1] (setting [4]), in data set [2] (setting [5]) and in data set [3] (setting [6]) was over 1000 nM in each case.

As for `CCCCN1CCCC[C@@H]1C(=O)N[C@H](C(=O)N(C)[C@H](C[C@@H](OC(C)=O)c1nc(C(=O)N[C@@H](Cc2cn(C)c3ccccc23)C[C@H](C)C(=O)OC)cs1)C(C)C)[C@@H](C)CC` [Tb57, Methyl (2S,4R)-4-[({2-[(1R,3R)-1-acetoxy-3-{[(2S,3S)-2-({[(2R)-1-butylpiperidin-2-yl]carbonyl}-amino)-3-methylpentanoyl](methyl)amino}-4-methylpentyl]-1,3-thiazol-4-yl}carbonyl)amino]-2-methyl-5-(1-methyl-1H-indol-3-yl)pentanoate], the IC50 in data set [1] (setting [4]), in data set [2] (setting [5]) and in data set [3] (setting [6]) was over 1000 nM in each case.

`COC(=O)[C@@H](C)C[C@H](Cc1ccccc1)NC(=O)c1cccc([C@@H](C[C@H](C(C)C)N(C)C(=O)[C@@H](NC(=O)[C@H]2CCCCN2C)C(C)C)OC(C)=O)n1` [Tb64, Methyl (2S,4R)-4-[({6-[(1R,3R)-1-acetoxy-4-methyl-3-{methyl[(2S)-3-methyl-2-({[(2R)-1-methyl-piperidin-2-yl]carbonyl}amino)butanoyl]amino}pentyl]pyridin-2-yl}carbonyl)amino]-2-methyl-5-phenylpentanoate]: the IC50 is 0.22 nM in data set [1] (setting [7]); 0.22 nM in data set [1] (setting [4]); 109 nM in data set [2] (setting [8]); 109 nM in data set [2] (setting [5]); 0.1 nM in data set [3] (setting [9]); 0.1 nM in data set [3] (setting [6]).

As to `CC(=O)O[C@H](C[C@H](C(C)C)N(C)C(=O)[C@@H](NC(=O)[C@H]1CCCCN1C)C(C)C)c1cccc(C(=O)N[C@@H](Cc2ccccc2)C[C@H](C)C(=O)O)n1` [Tb65, (2S,4R)-4-[({6-[(1R,3R)-1-Acetoxy-4-methyl-3-{methyl[(2S)-3-methyl-2-({[(2R)-1-methylpiperidin-2-yl]carbonyl}amino)butanoyl]amino}pentyl]pyridin-2-yl}carbonyl)amino]-2-methyl-5-phenylpentanoic acid], the IC50 in data set [1] (setting [4]) was 2.44 nM; in data set [2] (setting [5]), 279 nM; in data set [3] (setting [6]), 2.04 nM.

Regarding `COC(=O)[C@@H](C)C[C@H](Cc1ccccc1)NC(=O)c1nc([C@@H](C[C@H](C(C)C)N(C)C(=O)[C@@H](NC(=O)[C@H]2CCCCN2)C(C)C)OC(C)=O)sc1C` [Tb69, Methyl (2S,4R)-4-[({2-[(1R,3R)-1-acetoxy-4-methyl-3-{methyl[(2S)-3-methyl-2-{[(2R)-piperidin-2-ylcarbonyl]amino}butanoyl]amino}pentyl]-5-methyl-1,3-thiazol-4-yl}carbonyl)amino]-2-methyl-5-phenylpentanoate], the IC50 is 30.8 nM in data set [1] (setting [4]), over 1000 nM in data set [2] (setting [5]) and over 1000 nM in data set [3] (setting [6]).
